This note sets out measurements from ChEMBL document CHEMBL1154932, “Structure-based drug design enables conversion of a DFG-in binding CSF-1R kinase inhibitor to a DFG-out binding mode” (Bioorg Med Chem Lett, 2010).

The target in the first data set is Macrophage colony-stimulating factor 1 receptor (Homo sapiens, UniProt P07333). In words: Inhibition of human CSF1R autophosphorylation expressed in HEK293 cells after 1 hr by ELISA.
Macrophage colony-stimulating factor 1 receptor, sequence (P07333 whole entry): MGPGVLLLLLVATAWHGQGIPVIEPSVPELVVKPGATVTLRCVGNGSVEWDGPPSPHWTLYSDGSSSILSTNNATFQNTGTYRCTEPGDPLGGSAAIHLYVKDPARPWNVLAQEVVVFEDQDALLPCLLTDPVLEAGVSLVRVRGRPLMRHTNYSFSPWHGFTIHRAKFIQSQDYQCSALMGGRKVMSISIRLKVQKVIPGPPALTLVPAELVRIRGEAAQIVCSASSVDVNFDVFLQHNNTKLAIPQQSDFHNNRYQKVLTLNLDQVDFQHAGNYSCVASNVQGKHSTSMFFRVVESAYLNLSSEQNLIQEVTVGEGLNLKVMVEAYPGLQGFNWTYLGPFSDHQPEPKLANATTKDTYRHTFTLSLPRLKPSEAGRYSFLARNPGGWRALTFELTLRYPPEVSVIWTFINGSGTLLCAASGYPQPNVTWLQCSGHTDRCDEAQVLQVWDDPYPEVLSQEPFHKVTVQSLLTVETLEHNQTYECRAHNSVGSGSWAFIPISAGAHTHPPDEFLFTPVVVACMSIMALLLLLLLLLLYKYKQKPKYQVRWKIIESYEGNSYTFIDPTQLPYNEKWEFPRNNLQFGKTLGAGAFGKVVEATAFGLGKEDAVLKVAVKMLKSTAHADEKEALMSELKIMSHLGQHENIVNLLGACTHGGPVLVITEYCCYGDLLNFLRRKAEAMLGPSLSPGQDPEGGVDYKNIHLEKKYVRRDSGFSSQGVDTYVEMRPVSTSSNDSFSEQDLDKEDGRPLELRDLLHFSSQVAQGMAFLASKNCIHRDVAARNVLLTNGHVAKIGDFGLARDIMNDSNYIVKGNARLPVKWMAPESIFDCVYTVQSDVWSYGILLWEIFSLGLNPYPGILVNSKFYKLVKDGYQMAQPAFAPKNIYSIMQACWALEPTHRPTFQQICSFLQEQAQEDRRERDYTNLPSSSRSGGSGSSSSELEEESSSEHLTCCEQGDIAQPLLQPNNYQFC
Conditions: not given
(An ELISA detects its analyte on a solid surface through an enzyme-linked reagent.)
`COc1ccc(COc2ncc(Oc3nc(-c4cnn(C)c4)cnc3N)cc2OC)cc1`: half-maximal inhibition (IC50) required 12 nM. This counts as double-digit nanomolar.

In the next data set the target is hERG (KCNH2) (Homo sapiens, UniProt Q12809). Nature of the data set: Inhibition of CyB-tagged dofetilide binding to human ERG at 10 uM. To be noted: probe CyB-tagged dofetilide.
hERG (KCNH2), sequence (Q12809 whole entry): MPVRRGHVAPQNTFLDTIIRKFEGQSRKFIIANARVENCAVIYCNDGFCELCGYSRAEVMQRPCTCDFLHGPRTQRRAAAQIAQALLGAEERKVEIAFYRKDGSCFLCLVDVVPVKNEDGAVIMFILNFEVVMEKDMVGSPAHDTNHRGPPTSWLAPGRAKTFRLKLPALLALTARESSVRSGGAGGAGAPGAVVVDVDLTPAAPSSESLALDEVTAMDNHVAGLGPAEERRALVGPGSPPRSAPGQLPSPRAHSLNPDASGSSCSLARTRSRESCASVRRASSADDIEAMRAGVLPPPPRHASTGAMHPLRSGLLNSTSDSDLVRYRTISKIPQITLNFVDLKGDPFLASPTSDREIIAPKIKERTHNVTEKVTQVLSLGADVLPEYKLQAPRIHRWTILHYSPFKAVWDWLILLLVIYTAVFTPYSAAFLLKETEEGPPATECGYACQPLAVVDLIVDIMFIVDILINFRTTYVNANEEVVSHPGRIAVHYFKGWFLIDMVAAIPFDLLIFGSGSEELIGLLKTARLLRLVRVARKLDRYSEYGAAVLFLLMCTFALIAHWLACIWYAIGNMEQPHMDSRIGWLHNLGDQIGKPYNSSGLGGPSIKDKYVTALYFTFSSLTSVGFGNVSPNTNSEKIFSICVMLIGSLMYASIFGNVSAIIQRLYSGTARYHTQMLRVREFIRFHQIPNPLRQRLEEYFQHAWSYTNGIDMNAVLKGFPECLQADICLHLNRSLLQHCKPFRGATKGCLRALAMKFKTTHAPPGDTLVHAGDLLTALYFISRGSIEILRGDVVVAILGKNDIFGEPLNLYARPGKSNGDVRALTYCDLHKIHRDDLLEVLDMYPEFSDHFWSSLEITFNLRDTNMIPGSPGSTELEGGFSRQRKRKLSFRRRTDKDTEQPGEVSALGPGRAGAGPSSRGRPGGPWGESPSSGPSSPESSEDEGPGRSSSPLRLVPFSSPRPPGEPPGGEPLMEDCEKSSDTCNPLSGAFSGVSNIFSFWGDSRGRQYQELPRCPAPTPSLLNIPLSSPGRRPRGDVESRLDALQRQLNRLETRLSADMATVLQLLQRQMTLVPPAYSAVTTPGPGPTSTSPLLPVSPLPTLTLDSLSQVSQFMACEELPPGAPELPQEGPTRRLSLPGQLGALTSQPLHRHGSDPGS
`Cn1cc(-c2cnc(N)c(OCc3c(Cl)cccc3Cl)n2)cn1` gave an inhibition at 10 µM of 7%.

Molecule `Cn1cc(-c2cnc(N)c(NCc3c(Cl)cccc3Cl)n2)cn1` yielded an inhibition at 10 µM of 6%.

Molecule `Cn1cc(-c2cnc(N)c(OCc3ccccc3Cl)n2)cn1` returned an inhibition at 10 µM of 7%.

Turning to `Nc1ncc(-c2ccc(C(=O)N3CCC[C@H]3CN3CCCC3)cc2)nc1NCc1c(Cl)cccc1Cl`, the inhibition at 10 µM was determined as 78%.

For `Nc1ncc(-c2ccc(C(=O)N3CCC[C@H]3CN3CCCC3)cc2)nc1OCc1c(Cl)cccc1Cl`, the inhibition at 10 µM stood at 91%.

As a reminder, the IC50 is the concentration that inhibits the measured activity by half. For orientation: inhibition means the relative decrease from the control value, in per cent. Lower therefore signals a response near the control.
